In patent US7166688B1, “Chelation compositions” (LidoChem, Inc., priority 2000, dated 2007):

Key:
Corn [1] = experiment: Soil applied IDS chelated minerals with 10-34-0, tissue analysis, corn; type: in vivo
Method: (§1) An experimental trial was completed testing the efficacy of the Iminodisuccinates (IDS) of this invention on five different crops. Below is the protocol and tissue analysis for both soil and foliar applied iminodisuccinate chelated mineral salts.
(§2) A). The control pots were watered without any further treatments.
(§3) B). An ammonium polyphosphate stock solution was prepared by adding 50 ml of the 10-34-0 to 4000 ml of water. Treated plants received 100 ml of the stock solution.
(§4) (C). The Zinc stock solution was prepared by blending 10 ml of IDS chelated 9% Zinc to a blend of 50 ml of 10-34-0 with 4000 ml of water. Treated plants received 100 ml of the zinc stock solution.
(§5) (D). The mixture of IDS chelated micronutrients was prepared by adding 4 ml of 9% Zinc, 1 ml of 5% Copper, 1 ml of 5% manganese, and 1 ml of 5% Iron. This mixture was then blended with 4000 ml of water and 50 ml of 10-34-0.
(§6) All plants were sprayed until wet. Harvested material was placed in an oven for one day and sent to the lab for tissue analysis. Harvesting occurred thirty days after planting and some plants had not grown enough to get complete lab results reported. The harvested corn plants were cut at the whirl to insure only new leaves would be tested. The soybeans were clipped above the cotyledon. The alfalfa and clover were removed from the soil and the roots were removed. The wheat was cut at the tillering node.

Wheat [2] = experiment: Foliar applied IDS chelated minerals, tissue analysis, wheat; type: in vivo
Method: as §1
(§7) A stock solution for foliar application was prepared by blending 6000 ml of water with T-DAT 09, (Harcross Chemical Company, USA) a surfactant, added to spray mix at 2 drops per liter. • 1). 5 ml of 9% zinc was added to 1 liter of stock solution. • 2). 5 ml of 5% copper was added to 1 liter of stock solution. • 3). 5 ml of 5% manganese was added to 1 liter of stock solution. • 4). 5 ml of 5% Iron was added to 1 liter of stock solution. • 5). 4 ml of 9% zinc, 1 ml of 5% copper, 1 ml of 5% manganese, and 1 ml of 5% iron was added to 1 liter of stock solution. • 6). Stock solution without further addition.
as §6

Clover [3] = experiment: Foliar applied IDS chelated minerals, tissue analysis, clover; type: in vivo
Method: as §1, §7, §6

Corn [4] = experiment: Foliar applied IDS chelated minerals, tissue analysis, corn; type: in vivo
Method: as §1, §7, §6

Soybean = experiment: Foliar applied IDS chelated minerals, tissue analysis, soybeans; type: in vivo
Method: as §1, §7, §6

Clover [5] = experiment: Soil applied IDS chelated minerals with 10-34-0, tissue analysis, clover; type: in vivo
Method: as §1, §2, §3, §4, §5, §6

Wheat [6] = experiment: Soil applied IDS chelated minerals with 10-34-0, tissue analysis, wheat; type: in vivo
Method: as §1, §2, §3, §4, §5, §6

[7] = Iron chelation, clear solution / precipitate test; type: physicochemical; conditions: for appearance of solution / precipitates: 500 ml water, 10 ml 1.8 M ferric nitrate, pH 10, 10 grams potassium phosphate
Method: A five percent chelated iron solution was prepared by blending 18 ml of water with 100 grams of a (10% Fe) ferric nitrate solution. Once in solution, 82 grams of the compound produced in Example 10 was added.
In 25 ml of water, 20 ml of a 1.8M ferric nitrate was added. Once in solution, 30 ml of the diethanolsuccinamide amino ethanol solution produced in Example 17 was added and the pH of the blend was adjusted to 9.2. Then 1 gram of potassium phosphate was added to the mixture.
Five drops of 1.8 M ferric nitrate were added to one liter of water and mechanically blended. Then 10 grams of potassium phosphate were added to the solution and allowed to form insoluble potassium salts.
In 400 ml of water, 20 ml of a 10% ferric nitrate solution were added, and 20 ml of the product from example 25 were added. With mechanical stirring, 40 grams of monopotassium phosphate was added the mix. The pH of the solution was then adjusted to 2 with HCl. The pH of the solution was then gradually raised with the addition of base to a pH of 10.
In 400 ml of water, 10 ml of 1.8 M ferric nitrate solution were added and 20 ml of the product from example 28 were added. With mechanical stirring, 20 grams of monopotassium phosphate was added to the mix. The pH of the solution was then adjusted to 2 with HCL. The pH of the solution was then gradually raised with the addition of Monoethanolamine to a pH of 10.
To a beaker containing one liter of water, 20 grams of potassium phosphate were added to form a clear solution.
Thirty grams of 1.8 M ferric nitrate were added to 100 ml of water. The pH of the solution was lowered to 4 with phosphorous acid, and then 5 grams of Potassium phosphate were then added to the blend. Later 30 ml of the solution produced in example 29 was added.
One hundred ml of the solution prepared in Example 41 was added to 500 ml of water and blended. 10 ml of 1.8-M ferric nitrate was then added to the mixture. […] The potassium salt of maleic acid was tested as a chelating agent.
In a separate flask 20 grams of maleic anhydride were blended in 500 ml of water. Potassium hydroxide was then added to the blend to raise the pH to 10. Later ten ml of 1.8M ferric nitrate was added to the mix and 10 grams of potassium phosphate was also blended in. […] The contents of the flask were then blended again while MEA was added to the mix.

pepper plants = experiment: IDS versus EDTA chelates applied to the soil of pepper plants, tissue analysis; type: in vivo
Method: Below is the protocol and tissue analysis for the soil-applied iminodisuccinate and EDTA chelated mineral salts. Treatments: Control—no fertilizer 15-30-15 (fertilizer) alone 15-30-15 plus Cu IDS […] 15-30-15 plus Mn IDS […] 15-30-15 plus Zn IDS […] The standard fertilizer contained no micronutrients. Fertilizer was Hyponex 15-30-15. Each treatment was replicated 3 times. Soil treatments were applied as 50 ml per of the dilute blend of this invention. The pepper plants were transplanted into 1-gallon containers and grown until a suitable size. Plants were treated with the soil-applied chelate. Tissue samples were taken 30 days after the soil treatment had been applied. […] One gallon of fertilizer was poured over three replications of each set in the trial.

[Mn+2]
manganese in plant tissue, TREATED (Corn [1]; soil applied with 10-34-0, harvested 30 days after planting, control 128): 80.1
manganese in plant tissue, TREATED (Wheat [2]; harvested 30 days after planting, control 72.1): 379 parts per million
manganese in plant tissue, CHANGE (Wheat [2]; treated minus control 72.1): 306.9 parts per million
manganese in plant tissue, TREATED (Clover [3]; harvested 30 days after planting, control 168): 510 parts per million
manganese in plant tissue, CHANGE (Clover [3]; treated minus control 168): 342 parts per million
manganese in plant tissue, TREATED (Corn [4]; harvested 30 days after planting, control 99.1): 310 parts per million
manganese in plant tissue, CHANGE (Corn [4]; treated minus control 99.1): 210.9 parts per million
manganese in plant tissue, % change (Corn [4]; versus control 99.1): 213%
manganese in plant tissue, TREATED (Soybean; harvested 30 days after planting, control 230): 544 parts per million
manganese in plant tissue, CHANGE (Soybean; treated minus control 230): 314 parts per million
manganese in plant tissue, % change (Soybean; versus control 230): 137%
manganese in plant tissue, TREATED (Clover [5]; soil applied with 10-34-0, harvested 30 days after planting, control 154): 98.4
manganese in plant tissue, TREATED (Wheat [6]; soil applied with 10-34-0, harvested 30 days after planting, control 71.8): 76.2
manganese in plant tissue, CHANGE (Wheat [6]; soil applied, treated minus control 71.8): 4.4
manganese in plant tissue, % change (Wheat [6]; soil applied, versus control 71.8): 6%

O=C([O-])CC(C(=O)[O-])N(CCO)C(CC(=O)[O-])C(=O)[O-].[K+].[K+].[K+].[K+] (stereo not drawn) [Example 41, N,N-disuccinic-amino-ethanol tetra potassium salt]
appearance of solution / precipitates [7]: orange-red clear solution without precipitates

NCCO [MEA, monoethanolamine, reference compound]
redissolution of the precipitate on adding MEA ([7]; MEA added to the potassium maleate / ferric nitrate / potassium phosphate mix at pH 10): The precipitate never went back into solution

O=C([O-])/C=C\C(=O)[O-].[K+].[K+] [potassium salt of maleic acid, reference compound]
appearance of solution / precipitates [7]: a rust colored solid precipitated

COPPER
copper in plant tissue, TREATED (Corn [1]; soil applied with 10-34-0, harvested 30 days after planting, control 5.43): 11.7
copper in plant tissue, CHANGE (Corn [1]; soil applied, treated minus control 5.43): 6.27
copper in plant tissue, % (Corn [1]; soil applied, versus control 5.43): 115%
copper in plant tissue, TREATED (Wheat [2]; harvested 30 days after planting, control 10.8): 157 parts per million
copper in plant tissue, CHANGE (Wheat [2]; treated minus control 10.8): 146.2 parts per million
copper in plant tissue, TREATED (Clover [3]; harvested 30 days after planting, control 9.64): 227 parts per million
copper in plant tissue, CHANGE (Clover [3]; treated minus control 9.64): 217.36 parts per million
copper in plant tissue, TREATED (Corn [4]; harvested 30 days after planting, control 5.2): 300 parts per million
copper in plant tissue, CHANGE (Corn [4]; treated minus control 5.2): 294.8 parts per million
copper in plant tissue, % change (Corn [4]; versus control 5.2): 5669%
copper in plant tissue, TREATED (Soybean; harvested 30 days after planting, control 4.74): 937 parts per million
copper in plant tissue, CHANGE (Soybean; treated minus control 4.74): 932.26 parts per million
copper in plant tissue, TREATED (Clover [5]; soil applied with 10-34-0, harvested 30 days after planting, control 8.91): 20.2
copper in plant tissue, CHANGE (Clover [5]; soil applied, treated minus control 8.91): 11.29
copper in plant tissue, % change (Clover [5]; soil applied, versus control 8.91): 127%
copper in plant tissue, TREATED (Wheat [6]; soil applied with 10-34-0, harvested 30 days after planting, control 6.79): 12.1
copper in plant tissue, CHANGE (Wheat [6]; soil applied, treated minus control 6.79): 5.31
copper in plant tissue, % change (Wheat [6]; soil applied, versus control 6.79): 78%

EDTA [reference compound]
copper in tissue, TREATED (pepper plants; soil applied with 15-30-15, tissue 30 days after treatment, control 8.0): 12.9
TREATED (dry weight) (pepper plants; soil applied, control 4.8): 6.2
TREATED DRY (pepper plants; soil applied, dry weight, CONTROL DRY 4.8): 6.1
copper in tissue, TREATED ADJUSTED (pepper plants; soil applied, tissue level times dry weight, control adjusted 38.08): 80.03
copper in tissue, CHANGE IN (adjusted) (pepper plants; soil applied, treated adjusted minus control adjusted 38.08): 41.95
CHANGE IN WEIGHT (pepper plants; soil applied, treated dry minus control dry 4.8): 1.36
copper in tissue, % CHANGE (adjusted) (pepper plants; soil applied, versus control adjusted 38.08): 110%
% CHANGE (dry weight) (pepper plants; soil applied, versus control dry 4.8): 29%

IRON
iron in plant tissue, TREATED (Corn [1]; soil applied with 10-34-0, harvested 30 days after planting, control 45.4): 82.2
iron in plant tissue, CHANGE (Corn [1]; soil applied, treated minus control 45.4): 36.8
iron in plant tissue, % (Corn [1]; soil applied, versus control 45.4): 81%
iron in plant tissue, TREATED (Wheat [2]; harvested 30 days after planting, control 94.5): 334 parts per million
iron in plant tissue, CHANGE (Wheat [2]; treated minus control 94.5): 239.5 parts per million
iron in plant tissue, TREATED (Clover [3]; harvested 30 days after planting, control 130): 731 parts per million
iron in plant tissue, CHANGE (Clover [3]; treated minus control 130): 601 parts per million
iron in plant tissue, TREATED (Corn [4]; harvested 30 days after planting, control 36.9): 494 parts per million
iron in plant tissue, CHANGE (Corn [4]; treated minus control 36.9): 457.1 parts per million
iron in plant tissue, % change (Corn [4]; versus control 36.9): 1239%
iron in plant tissue, TREATED (Soybean; harvested 30 days after planting, control 111): 557 parts per million
iron in plant tissue, CHANGE (Soybean; treated minus control 111): 446 parts per million
iron in plant tissue, % change (Soybean; versus control 111): 402%
iron in plant tissue, TREATED (Clover [5]; soil applied with 10-34-0, harvested 30 days after planting, control 143): 224
iron in plant tissue, CHANGE (Clover [5]; soil applied, treated minus control 143): 81
iron in plant tissue, % change (Clover [5]; soil applied, versus control 143): 57%
iron in plant tissue, TREATED (Wheat [6]; soil applied with 10-34-0, harvested 30 days after planting, control 79.3): 90.9
iron in plant tissue, CHANGE (Wheat [6]; soil applied, treated minus control 79.3): 11.6
iron in plant tissue, % change (Wheat [6]; soil applied, versus control 79.3): 15%
